Source: patent US11643429B2, “Compounds and methods for the treatment of ocular disorders” (Azura Ophthalmics Ltd., priority 2019, dated 2023)

Assays:
[1] = Aqueous Hydrolysis Stability Assay; assay type: physicochemical; settings: 50 mM HEPES buffer pH 7.5; HEPES pH 7.5, room temperature; read-out: T1/2 Aq Stability
Experimental: Determination of aqueous stability of the test compounds was performed using HIPLC-MS. A test compound 10 mM stock solution was prepared in DMSO. 10 μl of the DMSO stock solution was dissolved in 990 μl of 50 mM HEPES pH 7.5 buffer or 1:1 (v/v) of Acetonitrile:Water to make a 100 μM solution. Final DMSO concentration was 1%. The solution was kept at room temperature and injected without delay into the LCMS (Waters Xevo TQ-S or Micromass Ultima). Additional injections were performed at appropriate time points. Half-life (T1/2) of the parent conjugate was calculated using the peak area of the parent conjugate at each time point in the linear region of the log-linear plot.

[2] = Rabbit Cornea Homogenate Stability Assay (Rabbit Cornea Esterase Assay); assay type: in vitro ADME; settings: New Zealand White, 37° C., half-life of parent conjugate
Experimental: Determining Rabbit Cornea Homogenate stability of the test compounds was performed using HPLC-MS. The assay was performed at two concentrations of Rabbit Cornea Homogenate (0.15 mg/ml and 0.45 mg/ml total protein) so that any hydrolysis observed could be assigned as esterase dependent or not.
Five rabbit corneas (e.g. New Zealand Whites) of approx. 50 mg each were sliced and scraped with a scalpel and tweezers until reduced to small (1-3 mm), thin pieces. These were transferred into a tared vial and accurately weighed, then diluted with 10 volumes aqueous PBS pH7.4
Sample was cooled intermittently on ice and shear homogenized for 3 minutes, then centrifuged for 3 min at 3000 rpm. The supernatant was pipetted off into a vial, and total protein concentration determined at 280 nm. Sample was stored at −78° C.
10 mM Compound stocks were diluted to 100 μM in a 96 deep-well plate: 10 μl of 10 mM Compound stock was added to 990 μl 50 mM HEPES, pH7.5 buffer.
Compounds were further diluted to 10 μM: 100 μl of 100 μM compound was added to 900 μl 50 mM HEPES, pH7.5 buffer.
Esterase homogenate was diluted to 300 ng/μl and 900 ng/μl
A heater shaker was set to 37° C. Into a suitable 96 well plate (Run Plate), 75 μl of 300 or 900 ng/μl esterase homogenate was pipetted into each of the required wells (2 min, 5 min, 10 min, 20 min and 45 min). The plate was sealed and then warmed at 37° C. for 5 min. Another 96 well PCR plate was put on ice (Kill Plate). To this was added 100 μl of MeCN to each well, labelled 0 min 2 min, 5 min, 10 min, 20 min and 45 min. The plate was covered to minimise evaporation. For the T=0 sample only, to the 100 μl cold MeCN stop solution was added 50 μl of 300 or 900 ng/μl esterase homogenate followed by 50 μl of 10 μM compound solution For the remaining timepoints, 75 μl of 10 μM compound solution was added to the Run Plate starting from T=45 min row and ending with T=2 min row. At the appropriate time point, 100 μl of the assay mixture was added to the matching kill plate well containing 100 μl of cold MeCN. Samples were analysed as soon as practicable by LCMS (Waters Xevo TQ-S or Micromass Ultima). Parent conjugate and parent concentrations were determined against appropriate standard response curves and the half-life (T1/2) of the parent conjugate was calculated using the peak area of the parent conjugate at each time point in the linear region of the log-linear plot.

[3] = Aqueous Hydrolysis Stability Assay; assay type: physicochemical; settings: New Zealand White, rabbit, rabbit cornea homogenate (esterase assay) in HEPES buffer, pH 7.5; ND, estimated from esterase assay; read-out: T1/2 Aq Stability
[4] = pH 7.5, Rabbit Cornea Homogenate 0.15 mg/ml total protein, read-out: T1/2 Esterase (min) (0.15 mg/ml Homogenate)
[5] = pH 7.5, Rabbit Cornea Homogenate 0.45 mg/ml total protein, read-out: T1/2 Esterase (min) (0.45 mg/ml Homogenate)

Compound | half-life at 100 µM [1] | half-life at 5 µM [2, 4] | half-life at 5 µM [2, 5] | half-life at 5 µM [3]
CC[C@H]1OC(=O)[C@H](C)[C@@H](O[C@H]2C[C@@](C)(OC)[C@@H](O)[C@H](C)O2)[C@H](C)[C@@H](O[C@@H]2O[C@H](C)C[C@H](N(C)C)[C@H]2OC(=O)CCOCCOCCOCCOCCO)[C@](C)(O)C[C@@H](C)CN(C)[C@H](C)[C@@H](O)[C@]1(C)O [Compound 5, (2S,3R,4S,6R)-4-(Dimethylamino)-2-(((2R,3S,4R,5R,8R,10R,11R,12S,13S,14R)-2-ethyl-3,4,10-trihydroxy-13-(((2R,4R,5S,6S)-5-hydroxy-4-methoxy-4,6-dimethyltetrahydro-2H-pyran-2-yl)oxy)-3,5,6,8,10,12,14-heptamethyl-15-oxo-1-oxa-6-azacyclopentadecan-11-yl)oxy)-6-methyltetrahydro-2H-pyran-3-yl 1-hydroxy-3,6,9,12-tetraoxapentadecan-15-oate] | 72 min | 21 min | 24 min | –
CC[C@H]1OC(=O)[C@H](C)[C@@H](O[C@H]2C[C@@](C)(OC)[C@@H](O)[C@H](C)O2)[C@H](C)[C@@H](O[C@@H]2O[C@H](C)C[C@H](N(C)C)[C@H]2OC(=O)Cc2ccc(OC)cc2)[C@](C)(O)C[C@@H](C)CN(C)[C@H](C)[C@@H](O)[C@]1(C)O [Compound 3, (2S,3R,4S,6R)-4-(Dimethylamino)-2-(((2R,3S,4R,5R,8R,10R,11R,12S,13S,14R)-2-ethyl-3,4,10-trihydroxy-13-(((2R,4R,5S,6S)-5-hydroxy-4-methoxy-4,6-dimethyltetrahydro-2H-pyran-2-yl)oxy)-3,5,6,8,10,12,14-heptamethyl-15-oxo-1-oxa-6-azacyclopentadecan-1-yl)oxy)-6-methyltetrahydro-2H-pyran-3-yl 2-(4-methoxyphenyl)acetate] | 42 min | 35 min | 39 min | –
CC[C@H]1OC(=O)[C@H](C)[C@@H](O[C@H]2C[C@@](C)(OC)[C@@H](O)[C@H](C)O2)[C@H](C)[C@@H](O[C@@H]2O[C@H](C)C[C@H](N(C)C)[C@H]2O)[C@](C)(O)C[C@@H](C)CN(C)[C@H](C)[C@@H](OC(=O)CO)[C@]1(C)O [Compound 11, (2R,3R,4R,5R,8R,10R,11R,12S,13S,14R)-11-(((2S,3R,4S,6R)-4-(Dimethylamino)-3-hydroxy-6-methyltetrahydro-2H-pyran-2-yl)oxy)-2-ethyl-3,10-dihydroxy-3-(((2R,4R,5S,6S)-5-hydroxy-4-methoxy-4,6-dimethyltetrahydro-2H-pyran-2-yl)oxy)-3,5,6,8,10,12,14-heptamethyl-15-oxo-1-oxa-6-azacyclopentadecan-4-yl 2-hydroxyacetate] | > 120 min | > 120 min | > 120 min | –
CC[C@H]1OC(=O)[C@H](C)[C@@H](O[C@H]2C[C@@](C)(OC)[C@@H](O)[C@H](C)O2)[C@H](C)[C@@H](O[C@@H]2O[C@H](C)C[C@H](N(C)C)[C@H]2O)[C@](C)(O)C[C@@H](C)CN(C)[C@H](C)[C@@H](OC(C)=O)[C@]1(C)O [Compound 12, (2R,3R,4R,5R,8R,10R,11R,12S,13S,14R)-11-(((2S,3R,4S,6R)-4-(Dimethylamino)-3-hydroxy-6-methyltetrahydro-2H-pyran-2-yl)oxy)-2-ethyl-3,10-dihydroxy-13-(((2R,4R,5S,6S)-5-hydroxy-4-methoxy-4,6-dimethyltetrahydro-2H-pyran-2-yl)oxy)-3,5,6,8,10,12,14-heptamethyl-15-oxo-1-oxa-6-azacyclopentadecan-4-yl acetate] | > 120 min | > 120 min | > 120 min | –
CC[C@H]1OC(=O)[C@H](C)[C@@H](O[C@H]2C[C@@](C)(OC)[C@@H](O)[C@H](C)O2)[C@H](C)[C@@H](O[C@@H]2O[C@H](C)C[C@H](N(C)C)[C@H]2OC(=O)O[C@H](C)C(=O)OC)[C@](C)(O)C[C@@H](C)CN(C)[C@H](C)[C@@H](O)[C@]1(C)O [Compound 10, Methyl (R)-2-(((((2S,3R,4S,6R)-4-(dimethylamino)-2-(((2R,3S,4R,5R,8R,10R,11R,12S,13S,14R)-2-ethyl-3,4,10-trihydroxy-13-(((2R,4R,5S,6S)-5-hydroxy-4-methoxy-4,6-dimethyltetrahydro-2H-pyran-2-yl)oxy)-3,5,6,8,10,12,14-heptamethyl-15-oxo-1-oxa-6-azacyclopentadecan-11-yl)oxy)-6-methyltetrahydro-2H-pyran-3-yl)oxy)carbonyl)oxy)propanoate] | – | 53 min | 49 min | ~51 min
